Values after ≈ are worked out from the molar mass of the structure shown. Some results are limits rather than exact numbers.

Usually kinetic solubility stands for solubility judged after dilution from a stock solution rather than from solid.

The conditions of the data set: buffer; pH 7.4; 200.0 µM.
Compound `O=C(NCCc1c[nH]c2ccccc12)c1ccc(Br)o1` yielded a kinetic solubility of 45.7 µg/mL (≈ 137 µM). `COc1ccc(-c2noc(CN(C)C(=O)c3ccco3)n2)cc1` had a kinetic solubility of 42.7 µg/mL (≈ 136 µM). The value for `Cn1c(-c2cccs2)nc2ccccc21` was 30.4 µg/mL (≈ 142 µM); that for `CC(C)Cc1ccc(/C=C/C(=O)N2CCOCC2)cc1` was greater than 41 µg/mL; that for `Cc1c(C=O)c2ccccn2c1C(=O)c1ccc(F)cc1` was 6.5 µg/mL (≈ 23.1 µM). In the case of `COC(=O)c1scc(S(=O)(=O)c2ccccc2)c1N`, the kinetic solubility turned out to be 1.9 µg/mL (≈ 6.39 µM).

In the case of `CSCC(=O)Nc1cc(C)on1`, the solubility (kinetic) is greater than 27.9 µg/mL. On to `O=C(NC1CCCc2ccccc21)c1cc(F)cc(F)c1` (configuration not stated), for which the solubility (kinetic) came out at 2.6 µg/mL (≈ 9.05 µM). Consider `Cc1ccc(S(=O)(=O)N2CCOCC2)cc1NC(=O)COC(=O)/C=C/c1ccco1`, for which the kinetic solubility came out at 11.4 µg/mL (≈ 26.2 µM). `CC(C)CNC(=O)[C@H](Cc1ccccc1)NC(=O)c1cccs1` showed a solubility (kinetic) of 9.6 µg/mL (≈ 29.1 µM). Consider `COC(=O)/C=C1\SC(=Nc2ccc(OC)cc2)NC1=O`, for which the kinetic solubility turned out to be 1.9 µg/mL (≈ 6.5 µM). In turn, `CC(NC(=O)c1cccc(S(=O)(=O)N(C)C)c1)C1CC2CCC1C2` (configuration not stated) had a solubility (kinetic) of 15.5 µg/mL (≈ 44.2 µM). The same measure for `CC1([N+](=O)[O-])COC2(OC1)C(=O)Nc1ccccc12` (configuration not stated): greater than 39.6 µg/mL; for `Cc1cc(C)cc(C(=O)OCC(=O)N2CCCCCC2)c1`: greater than 43.4 µg/mL; for `O=C(NCc1ccccc1)C1CCN(C(=O)Cc2ccccc2)CC1`: greater than 50.5 µg/mL. The value for `COc1ccc(CN(C)Cc2c(O)ccc3ccccc23)cc1` was 16.7 µg/mL (≈ 54.3 µM); that for `CCN(c1ccccc1)S(=O)(=O)c1ccc(C(=O)N2CCN(c3ccccc3)CC2)cc1` was 7 µg/mL (≈ 15.6 µM); that for `CC1(C)C2CCC(C2)C1(C)NC(=O)CN1CCCC1.Cl` (configuration not stated) was greater than 45.1 µg/mL. For the compound `CC(C)Cc1nc2sc3c(SCC(N)=O)ncnc3c2c2c1CCC2`, the solubility (kinetic) was determined as 0.3 µg/mL (≈ 0.805 µM). The same measure for `CCCCn1c(N)c(N(CC)C(=O)c2c(C)noc2C)c(=O)[nH]c1=O`: greater than 52.4 µg/mL; for `Cl.O=C(CN1CCCC1)Nc1ccc2c(c1)CCC2`: 41.3 µg/mL. As to `O=C(COC(=O)/C=C/c1ccccc1[N+](=O)[O-])Nc1ccc(S(=O)(=O)N2CCOCC2)cc1`, the kinetic solubility was 24 µg/mL (≈ 50.5 µM).

Take `NC(=O)C1CCN(C(=O)NC(=O)c2ccccc2)CC1`: the kinetic solubility was greater than 41.3 µg/mL. `CCOC(=O)c1c(N=CN(C)C)c2cc([N+](=O)[O-])cnc2n1C` returned a kinetic solubility of 35 µg/mL (≈ 110 µM). The value for `Cc1ccc2nsnc2c1NC(=O)Cc1ccc(Cl)cc1` was 0.7 µg/mL (≈ 2.2 µM); that for `O=c1c2[nH]c3ccc(Br)cc3c2ncn1Cc1ccncc1` was 0.4 µg/mL (≈ 1.13 µM); that for `O=C(C1CC(=O)N(c2ccc(Cl)cc2)C1)N1CCOCC1` (configuration not stated) was 40 µg/mL (≈ 130 µM).

On to `Cc1ccc(Nc2nc(N)nc(CCl)n2)cc1`, for which the solubility (kinetic) is greater than 37.5 µg/mL. `Cc1cccnc1NC(=S)NC(=O)c1oc2ccccc2c1C` displayed a kinetic solubility of 4.7 µg/mL (≈ 14.4 µM).

As to `O=C(c1ccc2ncsc2c1)N1CCCC(C(F)(F)F)C1` (configuration not stated), the kinetic solubility is greater than 47.1 µg/mL. The same measure for `O=C(Nc1ccccc1N1CCOCC1)c1ccc(Cl)nc1`: greater than 47.7 µg/mL; for `Clc1ccc(N2CCN(Cc3ccc(Br)o3)CC2)cc1`: 1.4 µg/mL (≈ 3.94 µM).

On to `C=CCc1ccc(OC(=O)NC2CCCCC2)c(OC)c1`, for which the kinetic solubility was determined as 4.5 µg/mL (≈ 15.6 µM). The value for `Cc1c(C=N)c(O)n(C)c(=O)c1C#N` was greater than 28.7 µg/mL. For `Cc1cc(NC(=O)C2CC(=O)N(c3cccc(Cl)c3)C2)no1` (configuration not stated), the kinetic solubility worked out at 16.3 µg/mL (≈ 51 µM). On to `CC(C)c1ccccc1NC(=O)CN1C(=O)c2ccccc2C1=O`, for which the kinetic solubility amounted to 1.6 µg/mL (≈ 4.96 µM). The value for `CCCCCCCOc1ccc(C2CC(=O)N(C)C2=O)cc1` (configuration not stated) was 3.1 µg/mL (≈ 10.2 µM); that for `Cc1ccc2sc(N(CCN(C)C)C(=O)/C=C/c3cccs3)nc2c1C.Cl` was less than 0.3 µg/mL; that for `Cc1cc(C(=O)NC(Cc2c[nH]c3ccccc23)C(=O)O)c(C)o1` (configuration not stated) was 41.6 µg/mL (≈ 127 µM). The value for `CSc1ncccc1C(=O)NC1CCCCCC1` was 35.5 µg/mL (≈ 134 µM); that for `COC(=O)c1ccc(NC(=O)C2CCCN(S(C)(=O)=O)C2)cc1` (configuration not stated) was 31.8 µg/mL (≈ 93.4 µM). `CCOc1ccccc1NC(=O)c1cc(=O)c2ccccc2o1`: the kinetic solubility was less than 0.7 µg/mL. `COC(=O)c1cc(NC(=S)NC(=O)c2ccccc2)ccc1N1CCOCC1` came in with a solubility (kinetic) of 1.8 µg/mL (≈ 4.51 µM).

For `Cc1ccccc1NC(=O)NC1CCCc2ccccc21` (configuration not stated), the kinetic solubility was found to be 0.9 µg/mL (≈ 3.21 µM). The same measure for `COc1c(C=O)cc2c3c1CCCN3CCC2`: 29.7 µg/mL (≈ 128 µM). Compound `COc1ccccc1CNC(=O)CC(C)c1ccccc1` (configuration not stated) displayed a kinetic solubility of 39.8 µg/mL (≈ 140 µM).

`CCOC(=O)c1ccc(NS(=O)(=O)c2ccc3oc(=O)[nH]c3c2)cc1` registered a kinetic solubility greater than 54.4 µg/mL. The value for `O=C(Nc1cccc(F)c1)C1CCN(C(=O)c2ccco2)CC1` was 44.4 µg/mL (≈ 140 µM); that for `CCc1cccc(C)c1NC(=O)CCNC(=O)c1cccc(C)c1` was greater than 48.7 µg/mL. Consider `CCOC(=O)C1C(CC)NC(=S)NC1(C)O` (configuration not stated), for which the solubility (kinetic) came to 35 µg/mL (≈ 142 µM). For the compound `Cc1cccc(C(=O)NCC(=O)N(C)Cc2nc3ccccc3c(=O)[nH]2)c1`, the kinetic solubility is greater than 54.7 µg/mL. As for `COc1ccc(NC(=O)COC(=O)C2CCN(S(=O)(=O)c3cccs3)CC2)cc1OC`, the solubility (kinetic) was determined as 47.1 µg/mL (≈ 101 µM).

(Values after PubChem BioAssay AID1996.)
